Patent publication US12540297B2, “Microfluidic device for cerebrovascular simulation and high-efficiency blood-brain barrier simulation system comprising same” (CELLARTGEN INC., priority 2018, dated 2026)

Experiments:
Cryptococcus neoformans = experiment: Multi-organ hNVU chip fungal neuroaffinity with inositol supplementation; format: cell-based; settings: 200 mg/ml inositol added only to liver unit, 1 day after inoculation
Experimental: NSC, PC and EC were seeded in the same manner as described above for fabrication of the hNVU chip system, and 8×10^6 Huh-7 cells/ml encapsulated in a BMEM hydrogel were seeded in a central channel of a liver unit of the multi-organ hNVU chip. CFW-labeled fungal cells were injected through an upper reservoir of the liver unit so that the fungi were not affected by factors secreted from a brain unit. Simultaneously with fungal inoculation, inositol (200 mg/ml, Duchefa, RV Haarlem, Netherlands) was added only to a lower channel of the liver unit.

[1] = test system: EC layer of BBB in hNVU chip (NSC-EC-PC/flow group); experiment: BBB permeability response to TNF-α exposure in hNVU chip; format: cell-based, human; settings: 20 ng/ml TNF-α
Experimental: In order to evaluate BBB permeability, the hNVU chip was placed horizontally on the substrate, and both EC and medium channels were filled with PBS to match the surface levels and homogenize the pressure applied to a 3D matrix. […] Vascular permeability was evaluated by the flow rate of the solute across the EC barrier according to the reference method. […] Vascular barrier permeability (Pv) was induced by using the mean intensity of blood vessels (Iv) and tissues (NSC gel, IT) at two different time points t1 and t2, according to Equation 6 calculated by Image J software. Here, Δt, V and Asurface are approximated by the mean morphology of the EC layer in the hNVU chip in the 3D confocal image and represent the time between two images in a selected region of interest, the NSC gel volume, and the surface area of the EC layer, respectively.

| Molecule | fungal invasion into the liver unit through the EC barrier (Cryptococcus neoformans) | level of neuroaffinity of C. neoformans (Cryptococcus neoformans) | increase of permeability of the EC layer to 70 kDa FITC-dextran [1] |
| --- | --- | --- | --- |
| O[C@H]1[C@H](O)[C@@H](O)[C@H](O)[C@@H](O)[C@H]1O [inositol] | did not increase fungal invasion | reduced the level of neuroaffinity |  |
| TNF-α |  |  | about 2.8 times |
